SMILES strings stand for the structures.

For the experiment, the system named is Mus musculus. Description: Antiinflammatory activity against TPA-induced ear edema in mouse assessed per ear. The class given is functional.
Turning to `C[C@@H]1O[C@@H](O[C@H]2[C@H](OC(=O)[C@]34CCC(C)(C)C[C@H]3C3=CC[C@@H]5[C@@]6(C)C[C@H](O)[C@H](O[C@@H]7O[C@H](C(=O)O)[C@@H](O)[C@H](O)[C@H]7O)[C@@](C)(C(=O)O)[C@@H]6CC[C@@]5(C)[C@]3(C)C[C@H]4O)O[C@@H](C)[C@H](O)[C@H]2O)[C@H](O)[C@H](O)[C@H]1O` [ZANHASAPONIN A], the ID50 was 14 µg.
The same measure for `C[C@@H]1O[C@@H](O[C@H]2[C@H](OC(=O)[C@]34CCC(C)(C)C[C@H]3C3=CC[C@@H]5[C@@]6(C)C[C@H](O)[C@H](O[C@@H]7O[C@H](C(=O)O)[C@@H](O)[C@H](O)[C@H]7O)[C@@](C)(C(=O)O)[C@@H]6CC[C@@]5(C)[C@]3(C)C[C@H]4O)O[C@@H](C)[C@H](O)[C@H]2O)[C@H](O[C@@H]2OC[C@@H](O)[C@H](O)[C@H]2O)[C@H](O)[C@H]1O` [ZANHASAPONIN B]: 20 µg.
`C[C@@H]1O[C@@H](O[C@H]2[C@H](OC(=O)[C@]34CCC(C)(C)C[C@H]3C3=CC[C@@H]5[C@@]6(C)C[C@H](O)[C@H](O[C@@H]7O[C@H](C(=O)O)[C@@H](O)[C@H](O)[C@H]7O)[C@@](C)(C(=O)O)[C@@H]6CC[C@@]5(C)[C@]3(C)C[C@H]4O)O[C@@H](C)[C@H](O)[C@H]2O)[C@H](O[C@@H]2OC[C@@H](O)[C@H](O[C@@H]3OC[C@@H](O)[C@H](O)[C@H]3O)[C@H]2O)[C@H](O)[C@H]1O` [ZANHASAPONIN C] gave an ID50 of 79 µg.
